In ChEMBL document CHEMBL1201862, “PubChem BioAssay data set” (2004) one finds IC50, AC50 and EC50 data, which are given here for six compounds.

For orientation: IC50 means the point on the concentration scale where inhibition reaches its midpoint. What is called AC50 is the concentration giving half of the maximal activity seen. One may read the EC50 as the concentration giving half of the maximal effect.

Assay [1] in a line: cytotoxicity in HEK-293T NF-kB-Luc cells, dose response, cytotoxicity control for B/T-cell NF-kB inhibitor project, cell-based, uHTS hits (AID 489019).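 Further: IC50 reflects cytotoxicity as loss of cell viability.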 Type of assay: functional.
Assay [2] concerns Jurkat. The assay can be described thus: antigen receptor-induced NF-kB inhibitors, dose response, Jurkat, luciferase reporter, luminescence, B- and T-cell (AID 489004).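 Further: NF-kB luciferase reporter Jurkat cells stimulated with PMA plus ionomycin.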 Type of assay: functional, cell-based. The conditions noted are these: Homo sapiens. Background: Reporter assays use an easily measured gene product as a stand-in for the process of interest.
Assay [3] deals with Escherichia coli. Put plainly: microbe, parasite or virus in culture.
The target in assay [4] is T1, Delta-type opioid receptor (Homo sapiens, UniProt P41143). Put plainly: SAR Analysis of Agonists of the DOR Receptor using an Image-Based Assay - Set 2. [Related pubchem assays (depositor defined):AID1777, AID1785, AID1786, AID1966, AID2133, AID2136, AID2284, AID2285, AID2370]. Type of assay: functional.
For assay [5], the target named is T2, Kappa-type opioid receptor (Homo sapiens, UniProt P41145). Put plainly: SAR analysis of Antagonists of the Kappa Opioid Receptor (KOR) using an Image-Based Assay - Set 2. [Related pubchem assays (depositor defined):AID1777, AID1785, AID1786, AID1966, AID2133, AID2136, AID2284, AID2285, AID2348]. Type of assay: functional.
Assay [6] addresses T2, Kappa-type opioid receptor. The assay can be described thus: SAR analysis of Agonists of the Kappa Opioid Receptor (KOR) using an Image-Based Assay - Set 2. [Related pubchem assays (depositor defined):AID1777, AID1786, AID1966, AID2133, AID2136, AID2284, AID2285, AID2359]. Type of assay: functional.
Assay [7] addresses T1, Delta-type opioid receptor. Put plainly: SAR Analysis of Antagonists of the DOR Receptor using an Image-Based Assay - Set 2. [Related pubchem assays (depositor defined):AID1777, AID1785, AID1786, AID1966, AID2133, AID2136, AID2284, AID2285, AID2357]. Type of assay: functional.
The target of assay [8] is T3, Mu-type opioid receptor (Homo sapiens, UniProt P35372). The assay can be described thus: SAR Analysis of Antagonists of the MOR Receptor using an Image-Based Assay - Set 2. [Related pubchem assays (depositor defined):AID1777, AID1785, AID1786, AID1966, AID2133, AID2136, AID2284, AID2285, AID2420]. Type of assay: functional.
For assay [9], the target named is T2, Kappa-type opioid receptor. Put plainly: SAR analysis of small molecule agonists of the kappa opioid receptor via a luminescent beta-arrestin assay - Set 2. [Related pubchem assays (depositor defined):AID1777, AID1785, AID1786, AID1966, AID2133, AID2136, AID2284, AID449737]. Type of assay: functional.
Assay [10] deals with T3, Mu-type opioid receptor. The assay can be described thus: SAR Analysis of Agonists of the MOR Receptor using an Image-Based Assay - Set 2. [Related pubchem assays (depositor defined):AID1777, AID1785, AID1786, AID1966, AID2133, AID2136, AID2284, AID2285, AID2352]. Type of assay: functional.
For assay [11], the target named is T4, Voltage-gated N-type calcium channel alpha-1B subunit/Amyloid beta A4 precursor protein-binding family A member 1 (Homo sapiens, UniProt Q00975+Q02410). The assay can be described thus: disruptors of Mint-PDZ/N-type channel peptide interaction – biochemical, HTRF, SAR follow-up (AID 2489). Type of assay: functional. In general terms: Time-resolved FRET reads energy transfer from a long-lived donor to a nearby acceptor.

In assay [12] the target is SUMO E1/E2 (Homo sapiens, UniProt P63279+Q9UBE0+Q9UBT2). Put plainly: SAR analysis of SUMOylation using HTRF in an in-Vitro dose response assay. [Related pubchem assays (depositor defined):AID2006, AID2011, AID2018, AID2069, AID2658]. Type of assay: functional.
In assay [13] the target is T4, Voltage-gated N-type calcium channel alpha-1B subunit/Amyloid beta A4 precursor protein-binding family A member 1. Put plainly: disruptors of Mint-PDZ/N-type channel peptide interaction – biochemical, HTRF, set 2, SAR follow-up (AID 434980). Type of assay: functional.
For assay [14], the system named is Jurkat. The assay can be described thus: SAR Analysis of small molecule inhibitors of […] specific antigen receptor-induced NF-kB activation in a Jurkat cell line using a luminescence assay - Set 3. [Related pubchem assays (depositor defined):AID435022, AID435025, AID465]. The conditions noted are these: Homo sapiens. Type of assay: functional, cell-based.

Assay [15] relates to HEK293. Put plainly: SAR Analysis of small molecule inhibitors of B-cell specific antigen receptor-induced NF-kB activation in a HEK-293T cell line using a luminescence assay - Set 2. [Related pubchem assays (depositor defined):AID435022, AID435025, AID489021]. Type of assay: functional, cell-based. The following applies: Homo sapiens.
Assay [16] has as its system HEK293. The assay can be described thus: cytotoxicity in HEK293T NF-kB-Luc cells, SAR follow-up, cytotoxicity control for NF-kB activator project, cell-based, resazurin fluorescence (AID 493251). Type of assay: functional. The following applies: Homo sapiens.
The target of assay [17] is Dual specificity protein phosphatase 3 (Homo sapiens, UniProt P51452). Put plainly: SAR VHR1 Fluorescent Assay for In Vitro dose response studies Set 3. [Related pubchem assays (depositor defined):AID1654, AID1661, AID1878]. Type of assay: functional.

Activity calls are given as the source filed them. Unless noted, the calls are words filed in the database; no cut-off is given here.

T2 sequence (P41145 whole entry): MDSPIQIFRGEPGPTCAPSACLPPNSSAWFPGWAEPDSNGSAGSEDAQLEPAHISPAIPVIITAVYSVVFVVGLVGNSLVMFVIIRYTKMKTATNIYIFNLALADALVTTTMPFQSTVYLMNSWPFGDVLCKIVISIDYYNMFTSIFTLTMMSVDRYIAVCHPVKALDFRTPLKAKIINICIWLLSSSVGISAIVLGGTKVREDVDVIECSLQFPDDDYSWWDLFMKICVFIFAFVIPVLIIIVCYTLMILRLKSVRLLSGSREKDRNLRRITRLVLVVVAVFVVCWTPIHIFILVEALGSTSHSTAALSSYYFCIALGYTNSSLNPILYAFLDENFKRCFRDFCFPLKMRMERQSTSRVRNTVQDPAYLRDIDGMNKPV
T1 sequence (P41143 whole entry): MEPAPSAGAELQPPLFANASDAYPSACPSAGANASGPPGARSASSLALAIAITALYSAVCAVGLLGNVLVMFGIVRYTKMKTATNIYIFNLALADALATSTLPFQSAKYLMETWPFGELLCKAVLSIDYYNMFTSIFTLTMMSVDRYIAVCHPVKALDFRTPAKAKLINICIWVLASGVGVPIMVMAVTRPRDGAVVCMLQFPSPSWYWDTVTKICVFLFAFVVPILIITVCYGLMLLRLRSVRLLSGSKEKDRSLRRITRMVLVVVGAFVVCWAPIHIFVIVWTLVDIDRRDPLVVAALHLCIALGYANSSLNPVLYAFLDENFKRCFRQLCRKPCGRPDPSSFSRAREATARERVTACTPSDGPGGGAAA
T4 sequence (Q00975 whole entry): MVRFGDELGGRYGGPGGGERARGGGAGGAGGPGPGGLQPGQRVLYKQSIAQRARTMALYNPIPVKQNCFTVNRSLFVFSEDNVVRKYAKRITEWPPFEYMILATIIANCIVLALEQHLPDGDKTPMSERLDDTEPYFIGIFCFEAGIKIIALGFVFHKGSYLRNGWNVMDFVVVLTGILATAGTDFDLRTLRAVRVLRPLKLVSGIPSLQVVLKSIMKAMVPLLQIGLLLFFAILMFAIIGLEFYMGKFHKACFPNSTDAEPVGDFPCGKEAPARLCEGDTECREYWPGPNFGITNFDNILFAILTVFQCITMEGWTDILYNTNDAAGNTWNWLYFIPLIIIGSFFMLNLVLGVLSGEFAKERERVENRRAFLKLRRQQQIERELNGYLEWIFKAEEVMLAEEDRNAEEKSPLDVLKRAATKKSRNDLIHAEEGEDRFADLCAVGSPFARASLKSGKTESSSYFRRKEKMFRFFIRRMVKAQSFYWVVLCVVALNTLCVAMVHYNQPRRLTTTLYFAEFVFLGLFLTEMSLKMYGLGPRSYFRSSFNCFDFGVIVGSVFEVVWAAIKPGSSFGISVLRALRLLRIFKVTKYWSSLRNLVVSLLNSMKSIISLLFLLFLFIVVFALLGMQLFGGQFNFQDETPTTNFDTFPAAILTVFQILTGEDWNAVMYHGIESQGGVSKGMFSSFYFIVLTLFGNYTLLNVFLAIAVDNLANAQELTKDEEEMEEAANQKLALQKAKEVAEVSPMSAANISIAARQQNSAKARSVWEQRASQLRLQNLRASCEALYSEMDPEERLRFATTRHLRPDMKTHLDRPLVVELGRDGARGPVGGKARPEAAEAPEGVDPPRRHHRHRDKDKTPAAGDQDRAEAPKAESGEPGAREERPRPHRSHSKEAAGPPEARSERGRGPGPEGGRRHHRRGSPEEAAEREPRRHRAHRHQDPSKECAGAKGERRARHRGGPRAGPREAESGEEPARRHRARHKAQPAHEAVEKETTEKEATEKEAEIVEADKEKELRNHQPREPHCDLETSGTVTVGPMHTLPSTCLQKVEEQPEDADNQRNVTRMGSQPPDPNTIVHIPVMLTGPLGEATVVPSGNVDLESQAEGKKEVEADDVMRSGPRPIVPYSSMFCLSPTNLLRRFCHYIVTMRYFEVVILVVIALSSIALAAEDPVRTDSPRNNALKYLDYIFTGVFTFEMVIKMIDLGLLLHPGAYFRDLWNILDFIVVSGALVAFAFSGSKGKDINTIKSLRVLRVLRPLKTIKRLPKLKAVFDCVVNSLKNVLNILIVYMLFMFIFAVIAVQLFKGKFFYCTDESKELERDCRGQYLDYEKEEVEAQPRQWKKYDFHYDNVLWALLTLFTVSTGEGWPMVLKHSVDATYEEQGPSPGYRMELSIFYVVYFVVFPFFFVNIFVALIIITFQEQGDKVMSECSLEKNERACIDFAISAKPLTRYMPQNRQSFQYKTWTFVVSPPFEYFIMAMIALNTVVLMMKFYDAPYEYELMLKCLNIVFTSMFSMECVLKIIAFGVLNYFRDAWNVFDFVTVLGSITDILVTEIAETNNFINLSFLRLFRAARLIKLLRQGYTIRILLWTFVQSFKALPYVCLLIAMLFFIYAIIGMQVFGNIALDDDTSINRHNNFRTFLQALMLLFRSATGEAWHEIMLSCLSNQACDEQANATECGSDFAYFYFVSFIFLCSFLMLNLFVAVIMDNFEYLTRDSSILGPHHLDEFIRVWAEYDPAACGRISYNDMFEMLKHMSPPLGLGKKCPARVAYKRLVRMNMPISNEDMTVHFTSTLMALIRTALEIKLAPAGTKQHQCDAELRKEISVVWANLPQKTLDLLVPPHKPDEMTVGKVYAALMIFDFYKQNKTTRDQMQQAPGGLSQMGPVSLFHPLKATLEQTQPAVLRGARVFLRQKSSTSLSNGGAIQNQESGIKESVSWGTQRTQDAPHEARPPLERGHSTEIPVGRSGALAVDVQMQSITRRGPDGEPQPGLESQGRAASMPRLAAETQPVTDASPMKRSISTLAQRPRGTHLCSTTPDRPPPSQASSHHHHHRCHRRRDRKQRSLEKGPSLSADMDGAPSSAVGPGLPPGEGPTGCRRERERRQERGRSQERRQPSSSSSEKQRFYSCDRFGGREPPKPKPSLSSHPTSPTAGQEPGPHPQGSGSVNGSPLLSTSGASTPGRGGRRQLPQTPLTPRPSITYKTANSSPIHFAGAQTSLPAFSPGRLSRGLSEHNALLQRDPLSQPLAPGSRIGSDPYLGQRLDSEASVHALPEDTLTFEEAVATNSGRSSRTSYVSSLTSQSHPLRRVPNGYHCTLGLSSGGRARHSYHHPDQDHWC
T4 sequence (Q02410 whole entry): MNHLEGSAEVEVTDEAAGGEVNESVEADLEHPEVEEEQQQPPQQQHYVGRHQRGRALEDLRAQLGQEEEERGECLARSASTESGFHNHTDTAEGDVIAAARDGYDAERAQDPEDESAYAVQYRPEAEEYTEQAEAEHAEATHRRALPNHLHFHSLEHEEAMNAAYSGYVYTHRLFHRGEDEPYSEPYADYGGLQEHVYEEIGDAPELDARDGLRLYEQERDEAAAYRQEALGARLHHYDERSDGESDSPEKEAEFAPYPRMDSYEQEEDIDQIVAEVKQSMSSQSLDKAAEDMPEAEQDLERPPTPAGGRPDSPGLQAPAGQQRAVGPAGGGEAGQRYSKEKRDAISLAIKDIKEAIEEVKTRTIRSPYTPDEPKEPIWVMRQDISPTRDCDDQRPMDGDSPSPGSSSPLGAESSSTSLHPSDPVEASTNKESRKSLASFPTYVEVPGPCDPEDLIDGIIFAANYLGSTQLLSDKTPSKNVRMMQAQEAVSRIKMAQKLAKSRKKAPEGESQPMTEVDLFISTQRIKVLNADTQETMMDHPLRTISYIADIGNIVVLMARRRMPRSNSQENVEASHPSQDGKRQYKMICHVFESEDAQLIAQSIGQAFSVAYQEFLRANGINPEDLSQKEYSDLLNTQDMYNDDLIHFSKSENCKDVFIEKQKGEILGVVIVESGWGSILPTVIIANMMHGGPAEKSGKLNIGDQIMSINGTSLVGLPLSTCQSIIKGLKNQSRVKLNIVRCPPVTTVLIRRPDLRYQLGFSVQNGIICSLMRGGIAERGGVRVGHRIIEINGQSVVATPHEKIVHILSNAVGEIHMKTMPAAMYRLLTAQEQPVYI
T3 sequence (P35372 whole entry): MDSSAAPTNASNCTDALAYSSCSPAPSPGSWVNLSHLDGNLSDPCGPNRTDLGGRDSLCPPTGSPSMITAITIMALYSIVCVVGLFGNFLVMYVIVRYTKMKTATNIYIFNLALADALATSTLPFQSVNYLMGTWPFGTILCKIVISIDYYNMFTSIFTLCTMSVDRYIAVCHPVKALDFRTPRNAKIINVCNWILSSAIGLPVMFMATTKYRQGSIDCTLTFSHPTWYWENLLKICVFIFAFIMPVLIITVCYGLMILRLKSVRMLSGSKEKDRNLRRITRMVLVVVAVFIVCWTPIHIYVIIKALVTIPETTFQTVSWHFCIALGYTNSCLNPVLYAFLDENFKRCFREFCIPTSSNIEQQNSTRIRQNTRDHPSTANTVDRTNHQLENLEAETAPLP
Chain of Dual specificity protein phosphatase 3 (P51452 whole entry): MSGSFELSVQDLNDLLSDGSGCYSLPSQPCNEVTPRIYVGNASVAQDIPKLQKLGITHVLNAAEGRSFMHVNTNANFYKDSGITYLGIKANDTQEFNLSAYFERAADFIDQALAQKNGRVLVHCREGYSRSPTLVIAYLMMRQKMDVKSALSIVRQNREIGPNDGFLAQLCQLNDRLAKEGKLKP

Turning to `CC(=O)OC(C)(C)/C=C/C(=O)[C@](C)(O)C1[C@H](O)C[C@@]2(C)C3CC=C4C(C[C@H](O)C(=O)C4(C)C)[C@]3(C)C(=O)C[C@]12C` (some centres not stated), the IC50 was > 80 µM (inactive) in assay [1] and 3.03 µM (active) in assay [2].
Regarding `Cc1c(Cl)cccc1NC(=O)C1NC(=O)CC1c1ccccc1` (configuration not stated), in assay [3], the half-maximal activity concentration (AC50) was 27.6 µM (active).
As for `c1ccc(CSc2nnc(-c3ccccn3)n2Cc2ccco2)cc1`, the EC50 in assay [4] is > 32 µM (inactive); in assay [6] it was > 32 µM (inactive); in [9], 17.9 µM (inactive); in [10] it was > 32 µM (inactive). Besides, the IC50 in assay [5], in assay [7] and in [8] was > 32 µM (inactive) in each case.
Consider `COc1ccc(CCNC(=O)COC(=O)c2cc(-c3ccco3)nc3ccccc23)cc1`, for which the IC50 in assay [11] was 32.9 µM (active); in assay [12], 11.5 µM (active); in [13], 12.2 µM (active).
`CNC(=O)CCc1nc(-c2ccc(C)cc2)no1`: the IC50 in assay [14], in assay [15] and in assay [16] was > 80 µM (inactive) in each case.
`COc1ccc(-c2nnc(Nc3nc4ccc(SC)cc4s3)o2)cc1`: the IC50 in assay [17] was 15.4 µM (active).
